Biological target: Vascular endothelial growth factor receptor 2 (Homo sapiens, UniProt P35968)
Test: Inhibition of KDR in presence of 1 mM ATP

Sequence of Vascular endothelial growth factor receptor 2 (P35968 whole entry): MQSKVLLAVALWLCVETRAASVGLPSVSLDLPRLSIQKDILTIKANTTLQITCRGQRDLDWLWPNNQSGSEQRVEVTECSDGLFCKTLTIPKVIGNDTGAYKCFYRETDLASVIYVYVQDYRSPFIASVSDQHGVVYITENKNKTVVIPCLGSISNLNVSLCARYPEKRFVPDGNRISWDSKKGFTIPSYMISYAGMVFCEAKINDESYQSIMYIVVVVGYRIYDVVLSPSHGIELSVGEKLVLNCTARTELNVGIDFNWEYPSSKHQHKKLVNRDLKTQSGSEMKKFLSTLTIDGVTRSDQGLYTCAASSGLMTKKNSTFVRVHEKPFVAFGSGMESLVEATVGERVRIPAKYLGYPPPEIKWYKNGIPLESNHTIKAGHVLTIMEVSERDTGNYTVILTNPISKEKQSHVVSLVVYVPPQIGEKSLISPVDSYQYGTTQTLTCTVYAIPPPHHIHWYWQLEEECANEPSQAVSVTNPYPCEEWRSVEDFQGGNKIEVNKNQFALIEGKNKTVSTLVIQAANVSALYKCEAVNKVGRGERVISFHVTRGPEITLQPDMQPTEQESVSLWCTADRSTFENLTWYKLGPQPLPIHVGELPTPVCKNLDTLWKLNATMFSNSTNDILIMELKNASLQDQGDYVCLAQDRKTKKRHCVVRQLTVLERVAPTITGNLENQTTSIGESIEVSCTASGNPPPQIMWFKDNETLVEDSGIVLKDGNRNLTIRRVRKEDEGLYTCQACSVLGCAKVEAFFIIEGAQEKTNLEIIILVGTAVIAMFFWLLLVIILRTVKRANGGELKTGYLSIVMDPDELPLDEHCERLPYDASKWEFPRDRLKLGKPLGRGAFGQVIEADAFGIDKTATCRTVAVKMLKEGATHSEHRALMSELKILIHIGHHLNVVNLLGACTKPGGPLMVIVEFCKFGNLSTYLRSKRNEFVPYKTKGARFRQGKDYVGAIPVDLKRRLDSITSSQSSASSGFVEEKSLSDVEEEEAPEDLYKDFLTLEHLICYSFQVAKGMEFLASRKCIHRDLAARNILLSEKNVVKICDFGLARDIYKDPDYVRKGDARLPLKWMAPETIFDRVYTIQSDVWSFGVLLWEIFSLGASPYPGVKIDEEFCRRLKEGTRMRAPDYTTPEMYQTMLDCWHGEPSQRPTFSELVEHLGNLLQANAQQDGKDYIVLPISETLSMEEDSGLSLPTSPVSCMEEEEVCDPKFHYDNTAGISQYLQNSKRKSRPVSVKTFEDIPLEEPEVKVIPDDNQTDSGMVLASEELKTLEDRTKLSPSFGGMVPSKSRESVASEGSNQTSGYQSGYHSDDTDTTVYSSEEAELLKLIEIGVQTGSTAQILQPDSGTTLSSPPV

`Cc1cccc(NC(=O)Nc2ccc(-c3cccc4c3C(=O)NC4)cc2)c1` and `Cc1cccc(NC(=O)Nc2ccc(-c3cccc4c(N)n[nH]c34)cc2)c1` cannot be ordered by IC50: greater than 1000 µM for the first, greater than 1000 µM for the second.

Compared with `O=C(Nc1ccc(-c2cccc3c(=O)[nH][nH]c23)cc1)Nc1cccc(C(F)(F)F)c1`, `O=C(Nc1ccc(-c2cccc3[nH][nH]c(=O)c23)cc1)Nc1cccc(C(F)(F)F)c1` is 4-fold lower in IC50: 0.04 µM for the first, 0.01 µM for the second.
